Assay results reported in PubChem BioAssay AID192 (DTP/NCI, 2004).
Values joined by “and” are separate entries in the source; they are usually repeats but may differ in a detail not shown here. Equal entries are not always repeated. Toxic doses and inconclusive results are not listed.

System: BDF1 mice, B16 melanoma ip, median survival T/C
Test: NCI In Vivo Anticancer Drug Screen. Data for tumor model B16 Melanoma (intraperitoneal) in B6D2F1 (BDF1) mice
Settings: endpoint: median survival time, higher = longer survival
How it was run: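 Mice with transplantable tumors; drug vs vehicle groups; endpoint survival or tumor size; value = T/C.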

[1] = dose: 3.12 mg/kg/injection, schedule: Q01DX009 (ip), vehicle: Klucel (hydroxypropylcellulose) (HPC)
[2] = dose: 6.25 mg/kg/injection, schedule: Q01DX009 (ip), vehicle: Klucel (hydroxypropylcellulose) (HPC)
[3] = dose: 12.5 mg/kg/injection, schedule: Q01DX009 (ip), vehicle: Klucel (hydroxypropylcellulose) (HPC)

Compound: CC[C@]1(O)C[C@H]2CN(CCc3c([nH]c4ccccc34)[C@@](C(=O)OC)(c3cc4c(cc3OC)N(C=O)[C@H]3[C@@](O)(C(=O)OC)[C@H](OC(C)=O)[C@]5(CC)C=CCN6CC[C@]43[C@@H]65)C2)C1
- T/C (dose: 0.06 mg/kg/injection, schedule: Q01DX009 (ip), vehicle: saline): 154 % of control
- T/C (dose: 0.06 mg/kg/injection, schedule: Q01DX009 (ip), vehicle: water): 168 % of control
- T/C (dose: 0.06 mg/kg/injection, schedule: Q01DX017 (ip), vehicle: saline): 156 % of control
- T/C (dose: 0.08 mg/kg/injection, schedule: Q01DX009 (ip), vehicle: water): 123 % of control
- T/C (dose: 0.12 mg/kg/injection, schedule: Q04DX003 (ip), vehicle: saline): 123 % of control
- T/C (dose: 0.13 mg/kg/injection, schedule: Q01DX017 (ip), vehicle: saline): 181 % of control
- T/C (dose: 0.13 mg/kg/injection, schedule: Q04DX003 (ip), vehicle: saline): 110 % of control
- T/C (dose: 0.18 mg/kg/injection, schedule: Q01DX005 (ip), vehicle: saline): 121 % of control
- T/C (dose: 0.2 mg/kg/injection, schedule: Q01DX009 (ip), vehicle: saline): 152 % of control and 171 % of control
- T/C (dose: 0.23 mg/kg/injection, schedule: Q04DX003 (ip), vehicle: water): 119 % of control and 121 % of control
- T/C (dose: 0.25 mg/kg/injection, schedule: Q01DX009 (ip), vehicle: water): 176 % of control and 189 % of control
- T/C (dose: 0.25 mg/kg/injection, schedule: Q01DX017 (ip), vehicle: saline): 197 % of control
- T/C (dose: 0.3 mg/kg/injection, schedule: Q01DX005 (ip), vehicle: saline): 119 % of control
- T/C (dose: 0.36 mg/kg/injection, schedule: Q01DX009 (ip), vehicle: water): 163 % of control
- T/C (dose: 0.36 mg/kg/injection, schedule: Q04DX003 (ip), vehicle: saline): 114 % of control
- T/C (dose: 0.39 mg/kg/injection, schedule: Q04DX003 (ip), vehicle: saline): 124 % of control
- T/C (dose: 0.39 mg/kg/injection, schedule: Q04DX003 (ip), vehicle: water): 119 % of control
- T/C (dose: 0.4 mg/kg/injection, schedule: Q01DX009 (ip), vehicle: saline): 178 % of control
- T/C (dose: 0.5 mg/kg/injection, schedule: Q01DX001 (ip), vehicle: saline): 120 % of control
- T/C (dose: 0.5 mg/kg/injection, schedule: Q01DX009 (ip), vehicle: water): 155 % of control and 163 % of control and 192 % of control
- T/C (dose: 0.5 mg/kg/injection, schedule: Q04DX003 (ip), vehicle: saline): 154 % of control
- T/C (dose: 0.5 mg/kg/injection, schedule: Q04DX005 (ip), vehicle: saline): 163 % of control
- T/C (dose: 0.54 mg/kg/injection, schedule: Q04DX003 (ip), vehicle: saline): 157 % of control
- T/C (dose: 0.6 mg/kg/injection, schedule: Q04DX003 (ip), vehicle: saline): 150 % of control and 152 % of control and 176 % of control
- T/C (dose: 0.65 mg/kg/injection, schedule: Q01DX001 (ip), vehicle: water): 118 % of control and 120 % of control
- T/C (dose: 0.65 mg/kg/injection, schedule: Q04DX003 (ip), vehicle: saline): 102 % of control
- T/C (dose: 0.75 mg/kg/injection, schedule: Q04DX003 (ip), vehicle: saline): 152 % of control
- T/C (dose: 0.8 mg/kg/injection, schedule: Q04DX003 (ip), vehicle: water): 116 % of control
- T/C (dose: 1.0 mg/kg/injection, schedule: Q01DX001 (ip), vehicle: saline): 120 % of control
- T/C (dose: 1.0 mg/kg/injection, schedule: Q04DX005 (ip), vehicle: saline): 181 % of control
- T/C (dose: 1.08 mg/kg/injection, schedule: Q01DX001 (ip), vehicle: water): 124 % of control
- T/C (dose: 1.08 mg/kg/injection, schedule: Q04DX003 (ip), vehicle: saline): 156 % of control
- T/C (dose: 1.2 mg/kg/injection, schedule: Q04DX003 (ip), vehicle: saline): 160 % of control and 198 % of control
- T/C (dose: 1.5 mg/kg/injection, schedule: Q04DX003 (ip), vehicle: saline): 150 % of control and 158 % of control
- T/C (dose: 1.67 mg/kg/injection, schedule: Q04DX003 (ip), vehicle: saline): 54 % of control
- T/C (dose: 1.8 mg/kg/injection, schedule: Q01DX001 (ip), vehicle: water): 122 % of control and 124 % of control
- T/C (dose: 1.8 mg/kg/injection, schedule: Q04DX003 (ip), vehicle: saline): 159 % of control
- T/C (dose: 1.8 mg/kg/injection, schedule: Q04DX003 (ip), vehicle: water): 151 % of control
- T/C (dose: 2.0 mg/kg/injection, schedule: Q04DX003 (ip), vehicle: saline): 173 % of control and 180 % of control
- T/C (dose: 3.0 mg/kg/injection, schedule: Q04DX003 (ip), vehicle: saline): 67 % of control
- T/C (dose: 15.63 micrograms/kg/injection, schedule: Q01DX009 (ip), vehicle: water): 110 % of control
- T/C (dose: 62.5 micrograms/kg/injection, schedule: Q01DX009 (ip), vehicle: water): 150 % of control
- T/C (dose: 78.0 micrograms/kg/injection, schedule: Q01DX009 (ip), vehicle: saline): 165 % of control
- T/C (dose: 78.0 micrograms/kg/injection, schedule: Q01DX009 (ip), vehicle: water): 123 % of control
- T/C (dose: 125.0 micrograms/kg/injection, schedule: Q01DX009 (ip), vehicle: water): 159 % of control
- T/C (dose: 130.0 micrograms/kg/injection, schedule: Q01DX009 (ip), vehicle: saline): 157 % of control
- T/C (dose: 216.0 micrograms/kg/injection, schedule: Q01DX009 (ip), vehicle: saline): 183 % of control
- T/C (dose: 216.0 micrograms/kg/injection, schedule: Q04DX003 (ip), vehicle: saline): 123 % of control
- T/C (dose: 250.0 micrograms/kg/injection, schedule: Q01DX009 (ip), vehicle: water): 175 % of control
- T/C (dose: 360.0 micrograms/kg/injection, schedule: Q01DX009 (ip), vehicle: saline): 160 % of control
- T/C (dose: 389.0 micrograms/kg/injection, schedule: Q04DX003 (ip), vehicle: saline): 158 % of control
- T/C (dose: 600.0 micrograms/kg/injection, schedule: Q04DX003 (ip), vehicle: saline): 155 % of control
- T/C (dose: 648.0 micrograms/kg/injection, schedule: Q04DX003 (ip), vehicle: saline): 153 % of control
- T/C (dose: 1000.0 micrograms/kg/injection, schedule: Q04DX003 (ip), vehicle: saline): 152 % of control and 166 % of control
- T/C (dose: 1080.0 micrograms/kg/injection, schedule: Q04DX003 (ip), vehicle: saline): 157 % of control
- T/C (dose: 1670.0 micrograms/kg/injection, schedule: Q04DX003 (ip), vehicle: saline): 179 % of control
- T/C (dose: 1800.0 micrograms/kg/injection, schedule: Q04DX003 (ip), vehicle: saline): 174 % of control

Compound: C=CCc1cccc(OC)c1OCCN(CC)CC
- T/C (dose: 5.0 mg/kg/injection, schedule: Q01DX009 (ip), vehicle: saline with Tween-80): 88 % of control
- T/C (dose: 10.0 mg/kg/injection, schedule: Q01DX009 (ip), vehicle: saline with Tween-80): 100 % of control
- T/C (dose: 20.0 mg/kg/injection, schedule: Q01DX009 (ip), vehicle: saline with Tween-80): 100 % of control

Compound: CNCC(C)(C)c1ccccc1
- T/C (dose: 6.25 mg/kg/injection, schedule: Q01DX009 (ip), vehicle: saline): 102 % of control
- T/C (dose: 12.5 mg/kg/injection, schedule: Q01DX009 (ip), vehicle: saline): 90 % of control
- T/C (dose: 25.0 mg/kg/injection, schedule: Q01DX009 (ip), vehicle: saline): 102 % of control
- T/C (dose: 50.0 mg/kg/injection, schedule: Q01DX009 (ip), vehicle: saline): 100 % of control

Compound: Cc1cc([N+](=O)[O-])c(S(N)(=O)=O)c([N+](=O)[O-])c1
- T/C (dose: 6.25 mg/kg/injection, schedule: Q01DX009 (ip), vehicle: water): 110 % of control
- T/C (dose: 12.5 mg/kg/injection, schedule: Q01DX009 (ip), vehicle: water): 100 % of control
- T/C (dose: 25.0 mg/kg/injection, schedule: Q01DX009 (ip), vehicle: water): 101 % of control
- T/C (dose: 50.0 mg/kg/injection, schedule: Q01DX009 (ip), vehicle: water): 103 % of control
- T/C (dose: 100.0 mg/kg/injection, schedule: Q01DX009 (ip), vehicle: water): 101 % of control

Compound: Cc1ccc2c(c1)C(=O)N(CC[P+](c1ccccc1)(c1ccccc1)c1ccccc1)C2=O
- T/C (dose: 0.78 mg/kg/injection, schedule: Q01DX009 (ip), vehicle: Klucel (hydroxypropylcellulose) (HPC)): 93 % of control
- T/C (dose: 1.56 mg/kg/injection, schedule: Q01DX009 (ip), vehicle: Klucel (hydroxypropylcellulose) (HPC)): 108 % of control
- T/C [1]: 103 % of control
- T/C [2]: 103 % of control
- T/C [3]: 95 % of control

Compound: C=CCCCC[P+](c1ccccc1)(c1ccccc1)c1ccccc1
- T/C (dose: 1.5 mg/kg/injection, schedule: Q01DX009 (ip), vehicle: saline): 102 % of control
- T/C (dose: 3.0 mg/kg/injection, schedule: Q01DX009 (ip), vehicle: saline): 92 % of control

Compound: CCCCCCC(C)NCC(O)COc1cccc(C)c1 (centres undefined)
- T/C [1]: 90 % of control
- T/C [2]: 94 % of control
- T/C [3]: 89 % of control
